The text below walks through data of ChEMBL document CHEMBL1129211, “Design and synthesis of sialyl Lex mimetics based on carbocyclic scaffolds derived from () quinic acid” (Bioorg Med Chem Lett, 1997).

In experiment [1] the target is T1, E-selectin (Homo sapiens) (UniProt P16581).
T1 sequence (whole entry): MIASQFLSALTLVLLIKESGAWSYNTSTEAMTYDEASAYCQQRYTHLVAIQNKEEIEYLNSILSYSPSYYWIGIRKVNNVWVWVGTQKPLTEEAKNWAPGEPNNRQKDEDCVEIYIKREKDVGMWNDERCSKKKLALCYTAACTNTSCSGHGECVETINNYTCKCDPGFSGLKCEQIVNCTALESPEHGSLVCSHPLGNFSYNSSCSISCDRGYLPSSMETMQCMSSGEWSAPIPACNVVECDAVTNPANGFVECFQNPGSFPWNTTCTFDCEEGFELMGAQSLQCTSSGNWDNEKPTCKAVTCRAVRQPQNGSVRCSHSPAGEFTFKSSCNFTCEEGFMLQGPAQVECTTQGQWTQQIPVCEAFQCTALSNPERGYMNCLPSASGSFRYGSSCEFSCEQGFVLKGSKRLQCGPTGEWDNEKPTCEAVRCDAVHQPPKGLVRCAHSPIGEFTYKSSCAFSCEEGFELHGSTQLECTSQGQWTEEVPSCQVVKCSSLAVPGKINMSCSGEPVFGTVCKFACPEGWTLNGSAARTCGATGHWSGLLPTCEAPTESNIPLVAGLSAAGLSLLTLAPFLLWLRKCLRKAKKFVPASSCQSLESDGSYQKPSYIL
In words: Tested for binding activity against Selectin E of the compound; inactive.

Experiment [2] has as its target T1, E-selectin (Homo sapiens). In words: Tested for binding activity against Selectin E of the compound.

`CC1OC(OC(C)(C)COCC2CC(O)C(O)C(OCC(=O)O)C2)C(O)C(O)C1O` (centres undefined) returned an Activity in experiment [1] of over 10 mM.

For the compound `C[C@@H]1O[C@@H](O[C@@H]2[C@@H](O)C[C@@](O)(CO)C[C@H]2O[C@@H]2O[C@@H](CO)[C@H](O)[C@H](OCC(=O)O)[C@@H]2O)[C@@H](O)[C@@H](O)[C@@H]1O`, the Activity in experiment [1] is over 10 mM.

On to `CC(=O)N[C@H]1[C@H]([C@H](O)[C@H](O)CO)O[C@@](O[C@@H]2[C@H](O)[C@H](O[C@@H]3C[C@](O)(CO)C[C@H](O)[C@H]3O[C@@H]3O[C@@H](C)[C@@H](O)[C@H](O)[C@@H]3O)O[C@@H](CO)[C@@H]2O)(C(=O)O)C[C@H]1O`, for which, in experiment [2], the Activity is 1 mM.

`CC1OC(OC(C)(C)COCC2(O)CCC(O)C(OCC(=O)O)C2O)C(O)C(O)C1O` (centres undefined): the Activity in experiment [1] is over 10 mM.
